Assay: Relative solubility of 17-AAG polymorphs in solvents and oils
Format: physicochemical
Conditions: lower melting point form (about 147-153° C.) compared with higher melting point form (about 200-212° C.) of 17-AAG; at room temperature
Excerpt: Indeed, one aspect of the invention is the ability to form and exploit different polymorphic structures. […] The water may be premixed with the ethanol or later added to the ethanol solution already containing 17-AAG dissolved therein. […] Depending on the end-goal, one may readily convert one form to another simply by dissolving and crystallizing in the appropriate solvent.

Structure (SMILES): C=CCNC1=C2C[C@@H](C)C[C@H](OC)[C@H](O)[C@@H](C)/C=C(\C)[C@H](OC(N)=O)[C@@H](OC)/C=C\C=C(/C)C(=O)NC(=CC1=O)C2=O [17-AAG, 17-allylamino-geldanamycin]
- solubility in a variety of solvents and oils: more readily soluble
